Experimental data published in PubChem BioAssay AID2840 (Southern Research Specialized Biocontainment Screening …, 2010).
The source made the active and inactive calls. The rule behind the calls is not given here.

test system: Salmonella typhi GFP reporter counter-screen, fluorescence, 4 h; assay: Salmonella typhi GFP reporter counter screen, fluorescence, PhoP regulon inhibitors, confirmatory, 4 h (AID 2840); details: not given

SMILES	IC50 [nM]
O=[N+]([O-])c1ccc(CNC2CCCc3ccccc32)cc1 (stereo unspecified)	< 150
O=C(Nc1ccc(Cl)cc1)N1CCCN(Cc2ccccc2F)C1	< 150
N#C/C(=C\c1ccc[nH]1)C(=O)NC1CC1	< 150
CCCCCNC(=O)c1cn(CC)c2cc(N3CCN(C)CC3)c(F)cc2c1=O	< 150
O=C(O)c1cn(-c2ccc(F)cc2)c2cc(Cl)c(F)cc2c1=O	< 150
CCn1cc(C(=O)O)c(=O)c2cc(F)c(N3CCN(C(=S)NC(=O)c4ccccc4F)CC3)cc21	< 150
Cc1ccc(CN2CCCN(C(=O)Nc3ccc(Cl)cc3)C2)cc1	99800
COc1c(N2CCN(C(=S)NCc3ccccc3)C(C)C2)c(F)cc2c(=O)c(C(=O)O)cn(C3CC3)c12 (stereo unspecified)	< 150
CN1CCN(C2=Cc3cc(Cl)ccc3Sc3cc(F)ccc32)CC1	< 150
C1=C(CCNc2ncnc3c2[nH]c2ccccc23)CCCC1	< 150
CSc1nc2cc(Oc3cccc(Cl)c3Cl)c(Cl)cc2[nH]1	< 150
S=C(NCc1ccc(Cl)cc1)Nc1ccncc1	< 150
O=C1C2=C(Nc3ccccc3SC2c2ccco2)c2ccccc21 (stereo unspecified)	< 150
O=C1c2ccccc2C2=Nc3ccccc3SC(c3ccccc3F)C12 (stereo unspecified)	< 150
CCCCn1c(NS(=O)(=O)c2ccccc2)c(S(=O)(=O)c2ccc(C)cc2)c2nc3ccccc3nc21	< 150
CCn1cc(C(=O)O)c(=O)c2cc(F)c(N3CCN(C(=S)Nc4ccccc4C(F)(F)F)CC3)cc21	104000
Cc1ccc(Nc2cc(C)c3c(O)cccc3n2)cc1C	< 150
CN(C)CCCN(C(=O)CCc1ccccc1)c1nc2ccc(Cl)cc2s1	< 150
O=C(Nc1cccnc1)c1cc(Br)c(Br)s1	< 150
O=C1C2=C(Nc3ccccc3SC2c2ccc(C(F)(F)F)cc2)c2ccccc21 (stereo unspecified)	107000
O=c1c2ccccc2[nH]c2ccc(F)cc12	< 150
CCn1cc(C(=O)O)c(=O)c2cc(F)c(N3CCN(C(=S)NC(=O)c4ccccc4Cl)CC3)cc21	< 150
O=S(=O)(Nc1c(S(=O)(=O)c2ccccc2)c2nc3ccccc3nc2n1C1CCCCC1)c1ccccc1	< 150
CCCCn1c(NS(=O)(=O)c2ccc(C)cc2)c(S(=O)(=O)c2ccccc2)c2nc3ccccc3nc21	< 150
COc1ccccc1Nc1nc(NCc2ccco2)c2ccccc2n1	< 150
O=C(Nc1nnc(-c2cccs2)o1)c1cccc(C(F)(F)F)c1	< 150
COc1ccc(NC(=O)c2cc(Br)c(Br)s2)cn1	< 150
CN1CCc2nc(SCC(=O)Nc3cccc(F)c3)c(C#N)c(-c3cccs3)c2C1	< 150

test system: not listed separately; assay: as above; details: Salmonella typhi GFP reporter counter-screen, fluorescence, 4 h; at 150 µM (top of the series)

SMILES	inhibition
O=C1C2=C(Nc3ccccc3SC2c2ccccc2Br)c2ccccc21 (stereo unspecified)	9.22% (inactive)
COc1ccc(NC(=S)NCc2ccc(Cl)cc2)cc1	8.1% (inactive)
COc1ccc(CNC(=S)Nc2ccncc2)cc1	15.2% (inactive)
O=C(Nc1ccccc1Cl)N1CCCN(Cc2ccccc2F)C1	0.77% (inactive)
S=C(NCc1ccc(Cl)cc1)Nc1ccc(Cl)cc1	0.06% (inactive)
O=C1C2=C(Nc3ccccc3SC2c2ccc(I)cc2)c2ccccc21 (stereo unspecified)	37.4% (inactive)
CCn1cc(C(=O)O)c(=O)c2cc(F)c(N3CCN(C(=S)NCc4ccccc4)CC3)cc21	13.2% (inactive)
O=C1C2=C(Nc3ccccc3SC2c2ccccc2C(F)(F)F)c2ccccc21 (stereo unspecified)	7.85% (inactive)
CCn1cc(C(=O)O)c(=O)c2cc(F)c(N3CCN(C(=S)Nc4ccccc4C)CC3)cc21	22% (inactive)
CCOc1ccc(NC(=S)N2CCN(c3cc4c(cc3F)c(=O)c(C(=O)O)cn4CC)CC2)cc1	15.7% (inactive)
COc1cccc(NC(=S)NCc2ccc(Cl)cc2)c1	2.87% (inactive)
O=C1C2=C(Nc3ccccc3SC2c2ccsc2)c2ccccc21 (stereo unspecified)	13.1% (inactive)
CCn1cc(C(=O)O)c(=O)c2cc(F)c(N3CCN(C(=S)Nc4ccccc4Cl)CC3)cc21	17.6% (inactive)
CCn1cc(C(=O)O)c(=O)c2cc(F)c(N3CCN(C(=S)NC)CC3)cc21	-11.9% (inactive)
S=C(NCc1ccc(Cl)cc1)Nc1cccnc1	-15.5% (inactive)
CCn1cc(C(=O)O)c(=O)c2cc(F)c(N3CCN(C(=S)Nc4ccc(Cl)cc4)CC3)cc21	39.1% (inactive)
O=C1C2=C(Nc3ccccc3SC2c2cccc(Cl)c2)c2ccccc21 (stereo unspecified)	14.9% (inactive)
COc1cccc(C2Sc3ccccc3NC3=C2C(=O)c2ccccc23)c1 (stereo unspecified)	14.1% (inactive)
S=C(NCc1ccc(Cl)cc1)Nc1ccc(Br)cc1	1.55% (inactive)
COc1ccccc1NC(=O)N1CCCN(Cc2ccccc2F)C1	21% (inactive)
O=C(NCc1ccccc1)N1CCCN(Cc2ccccc2F)C1	-5% (inactive)
Cc1ccc(NC(=S)NCc2ccc(Cl)cc2)cc1	1.23% (inactive)
S=C(NCc1ccccc1Cl)Nc1ccncc1	6.49% (inactive)
Cc1cccc(NC(=S)NCc2ccc(Cl)cc2)c1	3.06% (inactive)
Fc1ccccc1NC(=S)NCc1ccc(Cl)cc1	1.61% (inactive)
O=C1C2=C(Nc3ccccc3SC2c2ccccc2Cl)c2ccccc21 (stereo unspecified)	24.5% (inactive)
O=C(Nc1ccccc1)N1CCCN(Cc2ccccc2F)C1	14.4% (inactive)
S=C(NCc1ccc(Cl)cc1)Nc1cccc(Cl)c1	21.5% (inactive)
